Assay results published in article PMC10191356, “Target-agnostic drug prediction integrated with medical record analysis uncovers differential associations of statins with increased survival in COVID-19 patients” (PLOS Computational Biology, 2023).

Assays:
[1] = tested on: SARS-CoV-2 (WA-1 strain); assay: SARS-CoV-2 WT infection of Vero6 cells (CellTiter-Glo); format: cell-based; settings: MOI 0.01, 3 days, mean of two independent experiments; for IC50: Severe acute respiratory syndrome coronavirus 2, 72 h, relative IC50, WT virus; for Max Inhibition (%): WT virus
[2] = tested on: COVID-19 patients; assay: Retrospective electronic health record analysis of mortality (Cerner Real World Data COVID-19), propensity score matched; format: in vivo, human; settings: for Mortality, N (%): cohort before propensity score matching, moderate-intensity statin dose; for Mortality rate, treated patients / No. died/No. treated, treated patients: statin at moderate dose, COVID-19 patients; for reduction in the RR: treated vs matched untreated controls
Description: Data from the Cerner Real World Data COVID-19 deidentified EHR database containing records of 490,373 patients with a diagnosis of COVID-19 or COVID-19 exposure across 87 health care centers were analyzed. The following statins were included: atorvastatin, fluvastatin, lovastatin, pitavastatin, pravastatin, rosuvastatin, and simvastatin. Primary outcome was death after the onset of COVID-19. Inclusion criteria, considered comorbidities, and statistical analysis are detailed in the Methods in S1 Text.
Encounters include laboratory and pharmacy information (e.g., medication orders, dispensing), which are date and time stamped. Only patients with COVID-19 diagnosis confirmed by a laboratory test for SARS-CoV-2 (nucleic acid amplification tests and immunoassays) and/or by International Statistical Classification of Diseases and Related Health Problems, Tenth Revision (ICD-10) code U07.1 (for COVID-19 confirmed by laboratory testing),^1 with known demographic characteristics (age, sex, and race and ethnicity), and who were 18 years or older from January to September 2020 were included in our study (n = 90,834). Patients with COVID-19, with a statin medication dose consistent with moderate-intensity therapy,^2 and with a medication order status of active or completed and without a designation of as needed (ie, medication taken only when needed) at least once within a period of 10 days before and 7 days after their first recorded COVID-19 diagnosis were compared with patients with COVID-19 and no statin orders.
Considered comorbidities, identified by using International Classification of Diseases, Ninth Revision, Clinical Modification (ICD-9-CM), and International Statistical Classification of Diseases, Tenth Revision, Clinical Modification (ICD-10-CM), diagnosis codes, included hypertension (I10-I16 and 401.X-405.X), diabetes (O24, E11, E10, E13, and 250.X), chronic obstructive pulmonary disease (J44, 491.2, 493.2, and 496.X), obesity (E66.0, E66.1, E66.2, E66.8, E66.9, 278.00, 278.01, 278.03, Z68.3, Z68.4, V85.3, and V85.4), heart conditions (I20.X, I21.X, I22.X, I23.X, I24.X, I25.X, I42.X, I50.X, 410.X, 411.X, 412.X, 413.X, 414.X, 428.X, and 425.X), cerebrovascular disease (I6X.X, G45.X, G46.X, and 43X.X), cancer (C00-C96, 14X.X, 15X.X, 16X.X, 17X.X, 18X.X, 19X.X, and 20X.X), and chronic kidney disease (N18.X and 585.X). Prescription indications, identified by using ICD-9-CM and ICD-10-CM codes, included high cholesterol/hyperlipidemia (E78.0, E78.1, E78.2, E78.3, E78.4, E78.5, 272, 277). Body mass index (calculated as weight in kilograms divided by height in meters squared) values were identified by Logical Observation Identifiers Names and Codes 39156-5 and 89270-3. Body mass index values of at least 30 were used to confirm the diagnosis of obesity by ICD-9-CM or ICD-10-CM code. The mean dose prescribed for statins-treated patients was calculated for each statin. […] For patients receiving pravastatin, the mean (SD) dose was 48.25 (16.21) mg/d.
The R Matchit package, version 3.0.2 (R Program for Statistical Computing) was used to perform propensity score matching with a nearest-neighbor method to match patients treated with a statin with control patients (1:1 ratio), atorvastatin-treated patients with control patients (1:1 ratio), lovastatin-treated patients with control patients (1:10 ratio), pravastatin-treated patients with control patients (1:10 ratio), rosuvastatin-treated patients with control patients (1:10 ratio), and simvastatin-treated patients with control patients (1:5 ratio), with varying ratios for the different statins to have sufficient power for the comparisons and increase precision. […]

[3] = cited from earlier work
[4] = tested on: SARS-CoV-2 GFP; assay: microbe, parasite or virus in culture; format: cell-based; settings: for Max Inhibition (%) / IC50: mean of two independent experiments; for IC50: Severe acute respiratory syndrome coronavirus 2, 48 h, relative IC50
[5] = tested on: Vero E6 (Vero6) cells; settings: uninfected Vero6 cells; mean of two independent experiments
[6] = cited from earlier work; remark: listed apart in the source
[7] = in vitro; settings: African green monkey
[8] = cited from earlier work; remark: listed apart in the source
[9] = tested on: SARS-CoV-2; parameters: method as in earlier work; settings: VeroE6 cells; cited from earlier work
[10] = tested on: HCoV-OC43; assay: HCoV-OC43 infection of HUVECs, viral load; format: cell-based, human coronavirus OC43; settings: HUVEC cells, 1 or 5 μM
Description: (§1) To measure the impact of selected drugs on HCoV-OC43 infection, 96-well plates seeded with human umbilical vein endothelial cells (HUVECs) were infected with HCoV-OC43 and treated with drugs (Methods in S1 Text). Viral load, Hoechst fluorescence, and IP-10 measurements were measured and normalized to vehicle control samples for each assay. Each group was compared to vehicle controls using the Brown-Forsythe and Welch ANOVA tests and corrected for multiple comparisons using a Dunnett T3 test.
(§2) To measure the impact of selected drugs on HCoV-OC43 infection, 96-well plates seeded with Human Umbilical Vein Endothelial Cells (HUVEC) were infected with HCoV-OC43 and treated with drugs. Uninfected and vehicle treated cells (0.1% DMSO) are included as controls. HUVEC plates were pre-dosed with drugs overnight at 34°C at indicated concentrations (100 µl/well). The following day, HCoV-OC43 was added to the wells (100 µl/well) at an MOI of 0.2 and incubated for 3 h at 34°C. […] After five PBS washes, Hoechst fluorescence was read at 355 nm excitation and 450 nm emission using a Synergy H1 Spectrophotometer. Subsequently, viral load was analyzed using the ImmPACT DAB Peroxidase (HRP) Substrate kit (Vector Labs) according to the manufacturer’s instructions, and DAB absorbance was read at 465 nm.

[11] = tested on: SARS-CoV-2; assay: Preliminary in vivo study in SARS-CoV-2-infected mice
[12] = tested on: SARS-CoV-2; assay: Preliminary in vivo study in SARS-CoV-2-infected hamsters
[13] = tested on: IP-10; assay: IP-10 production in OC43-infected HUVECs; format: cell-based, human; settings: 1 or 5 μM
Description: as §1, §2

SMILES: CC(C)c1c(C(=O)Nc2ccccc2)c(-c2ccccc2)c(-c2ccc(F)cc2)n1CC[C@@H](O)C[C@@H](O)CC(=O)O [atorvastatin]
- IC50 [1]: 1.9 µM
- Max Inhibition (%) [1]: 24.4%
- Mortality, N (%) [2]: 431 (16.1) %
- Mortality rate, treated patients [2]: 16.1%
- No. died/No. treated, treated patients [2]: 431/2676
- reduction in the RR [2]: 14%

SMILES: CC(C)n1c(/C=C/C(O)CC(O)CC(=O)O)c(-c2ccc(F)cc2)c2ccccc21 (centres unmarked) [fluvastatin]
- Protein binding (%) [3]: >99%
- Max Inhibition (%) [4]: 19%
- Max Toxicity (%) [5]: 80.4%
- Solubility [6]: Lipophilic
- CC50 [7]: 10.6 µM
- Active metabolites [8]: No
- Bioavailability (%) [8]: 19 to 29%
- Elimination half-life [8]: 0.5 to 2.3 h
- Metabolism [8]: CYP2C9

SMILES: CC[C@H](C)C(=O)O[C@H]1C[C@@H](C)C=C2C=C[C@H](C)[C@H](CC[C@@H]3C[C@@H](O)CC(=O)O3)[C@H]21 [lovastatin]
- Protein binding (%) [3]: >95%
- IC50 [4]: 7.8 µM
- Max Inhibition (%) [4]: 55.8%
- Max Toxicity (%) [5]: 74.2%
- Solubility [6]: Lipophilic
- CC50 [7]: 16.9 µM
- Mortality, N (%) [2]: 15 (21.4) %
- Mortality rate, treated patients [2]: 21.4%
- No. died/No. treated, treated patients [2]: 15/70
- Active metabolites [8]: Yes
- Clearance [8]: Hepatic
- Elimination half-life [8]: 2.9 h
- Metabolism [8]: CYP3A4

SMILES: O=C(O)C[C@H](O)C[C@H](O)/C=C/c1c(C2CC2)nc2ccccc2c1-c1ccc(F)cc1 [pitavastatin]
- IC50 [1]: 1.6 µM
- Max Inhibition (%) [1]: 19.1%
- Protein binding (%) [3]: 99%
- Max Toxicity (%) [5]: 83.6%
- Solubility [6]: Lipophilic
- CC50 [7]: 0.3 µM
- Mortality, N (%) [2]: 4 (30.8) %
- Active metabolites [8]: Yes
- Bioavailability (%) [8]: 51%
- Clearance [8]: Hepatic
- Elimination half-life [8]: 12 h
- Metabolism [8]: Non-CYP450 Limited CYP2C9/19

SMILES: CC[C@H](C)C(=O)O[C@H]1C[C@H](O)C=C2C=C[C@H](C)[C@H](CC[C@@H](O)C[C@@H](O)CC(=O)O)[C@H]21 [pravastatin]
- Protein binding (%) [3]: 43 to 55%
- Max Inhibition (%) [4]: 21.7%
- Max Toxicity (%) [5]: 4%
- Solubility [6]: Hydrophilic
- Mortality, N (%) [2]: 71 (18.5) %
- Mortality rate, treated patients [2]: 18.5%
- No. died/No. treated, treated patients [2]: 71/383
- Relative risk of death (95% CI) ([2]; treated vs propensity score matched untreated controls, iteration with the least significant result): 0.78 (0.61–1.00)
- Active metabolites [8]: No
- Bioavailability (%) [8]: 18%
- Clearance [8]: Hepatic and renal
- Elimination half-life [8]: 1.3 to 2.8 h
- Metabolism [8]: Non-CYP450

SMILES: CC(C)c1nc(N(C)S(C)(=O)=O)nc(-c2ccc(F)cc2)c1/C=C/[C@@H](O)C[C@@H](O)CC(=O)O [rosuvastatin]
- effects on SARS-CoV-2 replication [9]: inhibitory effects
- Solubility [6]: Hydrophilic
- Mortality, N (%) [2]: 53 (13.1) %
- Mortality rate, treated patients [2]: 13.1%
- No. died/No. treated, treated patients [2]: 53/404
- reduction in the RR [2]: 41%
- Active metabolites [8]: No
- Clearance [8]: Hepatic and renal
- Metabolism [8]: Non-CYP450 Limited CYP2C9/8

SMILES: CCC(C)(C)C(=O)O[C@H]1C[C@@H](C)C=C2C=C[C@H](C)[C@H](CC[C@@H](O)C[C@@H](O)CC(=O)O)[C@H]21 [simvastatin hydroxy acid]
- inhibition of SARS-CoV-2 infection relative to pro-drug form of simvastatin [4]: much weaker inhibition

SMILES: CCC(C)(C)C(=O)O[C@H]1C[C@@H](C)C=C2C=C[C@H](C)[C@H](CC[C@@H]3C[C@@H](O)CC(=O)O3)[C@H]21 [simvastatin]
- Protein binding (%) [3]: 94 to 98%
- OC43 infection (viral load) [10]: inhibits
- effect on infection and host response ([11]; SARS-CoV-2-infected mice, very preliminary): no effect
- plasma levels ([11]; mice, compared with in vitro IC50): greater than the IC50
- IC50 [4]: 0.8 µM
- Max Inhibition (%) [4]: 93.7%
- effect on infection and host response ([12]; SARS-CoV-2-infected hamsters, very preliminary): no effect
- plasma levels ([12]; hamsters, compared with in vitro IC50): greater than the IC50
- cytokine (IP-10) production [13]: potently reduced
- Max Toxicity (%) [5]: 78.5%
- CC50 [7]: 6.5 µM
- Mortality, N (%) [2]: 153 (19.5) %
- Mortality rate, treated patients [2]: 19.5%
- No. died/No. treated, treated patients [2]: 153/784
- reduction in the RR [2]: 17%
- Clearance [8]: Hepatic
- Elimination half-life [8]: 2 to 3 h
